Test results reported in US20170095432A1, “TREPROSTINIL FORMULATIONS” (United Therapeutics Corporation, priority 2014, published 2017).

Columns and labels:
Type in all cases: physicochemical
[1] = Stability of treprostinil diethanolamine at ambient and refrigerated environments; conditions: 14 days
Experimental: (§1) Treprostinil diethanolamine was determined to be stable for 14 days at both ambient and refrigerated environments.

[2] = Binding of treprostinil diethanolamine to the 0.45-μm PTFE filters used in the assay
Experimental: A UV absorbance measurement was conducted with an approximate 0.1 mg/mL treprostinil diolamine solution with a Fluostar Omega BMG Labtech UV spectrophotometer from 220 nm to 350 nm to determine the λmax. Two standard curves were established with known concentrations of treprostinil at 228 nm and 270 nm. The time to achieve equilibrium between bound and unbound treprostinil to the IER was determined. One gram of resin was added to 100 mL of 10 mg/mL treprostinil solution. The suspension was stirred for four hours and 1 -mL samples were taken at 30, 60, 90, 120, 180, and 240 minutes. Each sample was filtered through a 0.45-μm PTFE filter, and the resulting solution was assayed by UV spectrophotometry for treprostinil concentration. Complexation experiments were conducted with known concentrations of treprostinil and one gram of resin at ratios of 1:0.5, 1:1, 1:2, and 1:4, resin:treprostinil (w/w). Two resins, PUROLITE™ and DUOLITE™, were evaluated separately. The amount of treprostinil complexed per gram of resin was calculated based on the difference between the initial and final treprostinil concentration. The percent loading efficiency was calculated based on the equation: (1-[unbound treprostinil]/[initial treprostinil]) * 100. […]
as §1

[3] = Complexation of treprostinil with cholestyramine ion-exchange resins (PUROLITE, DUOLITE); unbound drug assayed by UV at 270 nm
Experimental: A UV absorbance measurement was conducted with an approximate 0.1 mg/mL treprostinil diolamine solution with a Fluostar Omega BMG Labtech UV spectrophotometer from 220 nm to 350 nm to determine the λmax. Two standard curves were established with known concentrations of treprostinil at 228 nm and 270 nm. The time to achieve equilibrium between bound and unbound treprostinil to the IER was determined. One gram of resin was added to 100 mL of 10 mg/mL treprostinil solution. The suspension was stirred for four hours and 1 -mL samples were taken at 30, 60, 90, 120, 180, and 240 minutes. Each sample was filtered through a 0.45-μm PTFE filter, and the resulting solution was assayed by UV spectrophotometry for treprostinil concentration. Complexation experiments were conducted with known concentrations of treprostinil and one gram of resin at ratios of 1:0.5, 1:1, 1:2, and 1:4, resin:treprostinil (w/w). Two resins, PUROLITE™ and DUOLITE™, were evaluated separately. The amount of treprostinil complexed per gram of resin was calculated based on the difference between the initial and final treprostinil concentration. The percent loading efficiency was calculated based on the equation: (1-[unbound treprostinil]/[initial treprostinil]) * 100. Photographs were taken for each resin before and after complexation with treprostinil using a Leica DM IL LED light microscope and Leica DMC2900 microscope camera.
FIGS. 1-6 present the results of experiments. […] FIGS. 2A and 2B show calibration curves for determining a concentration of unbound treprostinil (diethanolamine) based on treprostinil absorbance at 228 nm (2A) and 270 nm (2B). The 270 nm curve was used to calculate all the concentrations in the complexation experiments.

| Compound | stability ([1]; ambient environment) | stability ([1]; refrigerated environment) | binding effect with PTFE filters [2] | loading efficiency (drug bound to the resin) ([3]; lower concentrations of treprostinil diethanolamine) | maximum amount of treprostinil bound ([3]; plateau with increasing concentration of treprostinil diethanolamine, resin:treprostinil ratios 1:0.5 to 1:4 (w/w)) [g/g resin] | time to equilibrium between bound and unbound treprostinil to the resins ([3]; stirring, 1 g resin in 100 mL of 10 mg/mL treprostinil solution) |
| --- | --- | --- | --- | --- | --- | --- |
| CCCCC[C@H](O)CC[C@@H]1[C@H]2Cc3cccc(OCC(=O)O)c3C[C@H]2C[C@H]1O.OCCNCCO [Treprostinil diethanolamine] | stable | stable | no binding effect | almost all drug was bound to the resin |  |  |
| CCCCC[C@H](O)CC[C@@H]1[C@H]2Cc3cccc(OCC(=O)O)c3C[C@H]2C[C@H]1O [treprostinil] |  |  |  |  | 1.6 | After one hour of stirring |
